ChEMBL document CHEMBL3137356, “MMV Box Cryptosporidium parvum screening set”

System: Cryptosporidium parvum
Assay: MMV: Cryptosporidium parvum oocysts (Iowa Strain) were prepared for use by treatment with 10 mM HCl (37 degrees C, 10 min) followed by 2 mM sodium taurocholate in phosphate-buffered saline (PBS) with Ca2+ and Mg2+ (16 degrees C, 10 min) in order to stimulate excystation. The high-throughput screen was carried out by inoculating >90% confluent human ileocecal adenocarcinoma (HCT-8) cells (ATCC) with ~5.5 x 10^3 primed oocysts per well. Experimental compounds or DMSO (vehicle) were added three hours after infection, and cells were incubated for 48 hours.
Assay type: functional

In the case of COc1ccc(-c2cc3c(nn2)-c2ccccc2C3=O)cc1, the Inhibition is reported as -19.28%.
COc1ccc(C2c3ccc4ccccc4c3Oc3ncn(CCCN(C)C)c(=N)c32)cc1 (stereo unspecified) was tested, and the Inhibition was 9.024%.
Nc1nc(Nc2cccc(F)c2)nc2ccccc12 was tested, and the Inhibition was 22.76%.
COc1ccc(/C=C2/SC(=Nc3ccccc3)NC2=O)cc1 showed an Inhibition of 35.48%.
In the case of c1ccc(/C2=N/c3ccccc3/N=C(/c3ccccc3)c3ccccc32)cc1, the Inhibition is reported as 8.997%.
For O=C(NC1CCN(Cc2ccccc2)CC1)c1cc2nc(-c3ccc(Cl)s3)cc(C(F)(F)F)n2n1, the Inhibition was -21.67%.
Molecule Cc1sc(NC(=O)c2ccccc2)c(C(c2cccs2)N2CCN(c3ccccc3)CC2)c1C (stereo unspecified) has an Inhibition of -51.35%.
CCOC(=O)c1c(C)n(-c2ccccc2)c2ccc(OC(=O)c3cc(OC)c(OC)c(OC)c3)cc12 was tested, and the Inhibition was 4.591%.
Molecule N#Cc1nc(Cc2cccc3ccccc23)oc1N1CCN(C(c2ccccc2)c2ccccc2)CC1 has an Inhibition of -4.219%.
With COc1ccc(C2c3ccc4ccccc4c3Oc3ncn(CCCn4ccnc4)c(=N)c32)cc1OC (stereo unspecified) the Inhibition was 5.542%.
Molecule CN(N=O)C1=C(NC2CCCCC2)C(=O)c2ccccc2C1=O has an Inhibition of -6.459%.
CCOC(=O)C1=C(C)N=c2sc(=Cc3ccccc3O)c(=O)n2C1c1ccc(OC)c2ccccc12 (stereo unspecified) was tested, and the Inhibition was -32.82%.
With CCOC(=O)C1=C(C)N=c2sc(=Cc3cc(Cl)ccc3O)c(=O)n2C1c1ccc(OC)cc1 (stereo unspecified) the Inhibition was -31.98%.
Molecule FC(F)(F)c1cccc(Nc2nc3ccccc3nc2Nc2cccc(C(F)(F)F)c2)c1 has an Inhibition of -14.38%.
In the case of COc1cccc(Nc2nc(N)c3ccccc3n2)c1.Cl, the Inhibition is reported as 27.99%.
Molecule Cc1ccc(C(=O)c2oc3ccc4c(C)cc(=O)oc4c3c2C)cc1 has an Inhibition of 28.07%.
With COc1ccc(CN2CCCC(C(=O)c3ccc(C(F)(F)F)cc3)C2)c(O)c1 (stereo unspecified) the Inhibition was -4.732%.
Work on CCCCCCc1cc2cc(-c3csc(C=Cc4ccccc4)n3)c(=O)oc2cc1O yielded an Inhibition of 10.86%.
Oc1ccc(-c2nc(-c3ccc4oc5ccc(-c6[nH]c(-c7ccc(O)cc7)nc6-c6ccccc6)cc5c4c3)c(-c3ccccc3)[nH]2)cc1 gave an Inhibition of -17.83%.
O=C(NC1CCCCC1)C(c1cccs1)N(CCc1ccccc1)C(=O)c1ccco1 (stereo unspecified) gave an Inhibition of -24.45%.
CC(Oc1ccc(NC(=O)c2cccs2)cc1)C(=O)c1ccc(Cl)cc1 (stereo unspecified) gave an Inhibition of 19.15%.
In the case of Cl.c1ccc2c(NCCCCCCNc3c4c(nc5ccccc35)CCCC4)c3c(nc2c1)CCCC3, the Inhibition is reported as 13.18%.
With COc1ccc(CNC(=O)c2cc3c(=O)n4ccccc4nc3n(CCc3ccccc3)c2=N)cc1 the Inhibition was 20.87%.
Brc1ccc(Nc2nc3ccccc3nc2Nc2ccc(Br)cc2)cc1 gave an Inhibition of -31.05%.
In the case of O=C(NC1CCN(Cc2ccccc2)CC1)c1cc(C(=O)NC2CCN(Cc3ccccc3)CC2)cc(C(=O)NC2CCN(Cc3ccccc3)CC2)c1, the Inhibition is reported as 0.9409%.
Work on Cc1ccnc(NC(c2cccc(OCc3ccccc3)c2)c2ccc3cccnc3c2O)c1 (stereo unspecified) yielded an Inhibition of 80.24%.
Nc1ccc(-c2nc3cc(Cc4ccc5[nH]c(-c6ccc(N)cc6)nc5c4)ccc3[nH]2)cc1 was tested, and the Inhibition was -51.86%.
COc1ccc(-c2cn3c(C(=O)Nc4ccccc4Cl)c(-c4ccccc4)c4c3n2CCCC4)cc1 gave an Inhibition of 34.31%.
In the case of CCCCOC(=O)c1ccc(Nc2cc(C)nc3ccc(OC)cc23)cc1, the Inhibition is reported as 12.32%.
Molecule Cl.Cn1c(=O)n(C)c2cc(CNCCNc3ccnc4cc(Cl)ccc34)ccc21 has an Inhibition of 20.67%.
Cc1cc(Nc2ccc(OCc3ccccc3)cc2)nc2cc(O)ccc12 gave an Inhibition of -18.86%.
For CCN(CC)CCNc1ccnc2cc3ccccc3cc12.O=P(O)(O)O, the Inhibition was 3.908%.
CCOc1ccc2nc(C)cc(Nc3ccc(N(C)C)cc3)c2c1.Cl was tested, and the Inhibition was -13.24%.
Molecule N=c1c2ccccc2nnn1-c1cccc(C(F)(F)F)c1 has an Inhibition of 6.889%.
Molecule COc1cc(-c2nc(-c3ccc(Sc4ccccc4)cc3)c(-c3ccccc3)[nH]2)cc(OC)c1O has an Inhibition of -39.67%.
Work on O=c1cc(NC2CCN(CCCc3ccccc3)CC2)c2cc(Cl)ccc2o1 yielded an Inhibition of -2.261%.
In the case of COc1ccc(C=C2SC(Nc3ccc(F)cc3)=NC2=O)c(OC)c1, the Inhibition is reported as 36.03%.
Work on Cc1ccc(OCCCCCCNCCO)c(C)c1 yielded an Inhibition of -13.88%.
COc1ccc(C2NCCc3c2[nH]c2ccccc32)cc1CN1CCN(c2ccc(F)cc2)CC1.Cl (stereo unspecified) was tested, and the Inhibition was -2.167%.
Molecule O=C(Nc1ccc(-c2nc3cc(NC(=O)c4ccc(Cl)cc4)ccc3[nH]2)cc1)c1ccc(Cl)cc1 has an Inhibition of -6.932%.
With OC(Cn1nnc2ccccc21)Cn1c2ccc(Br)cc2c2cc(Br)ccc21 (stereo unspecified) the Inhibition was -11.24%.
In the case of CCOc1ccc(-n2cc(-c3ccccc3)c3c(SCc4cc(C)ccc4C)ncnc32)cc1, the Inhibition is reported as -2.262%.
Molecule Cc1ccc(C)c(Cn2c(N3CCC(C(=O)NCc4cccs4)CC3)nc3ccccc32)c1 has an Inhibition of -14.3%.
In the case of Cc1ccccc1OCCSc1nc2ccc(NC(=O)c3cccs3)cc2s1, the Inhibition is reported as -27.25%.
In the case of CCOC(=O)c1cnc2ccc(OC)cc2c1Nc1ccc(N2CCN(C)CC2)cc1, the Inhibition is reported as -40.43%.
CC1CCN(Cc2c(O)ccc3cc(-c4nc5ccccc5s4)c(=O)oc23)CC1 gave an Inhibition of -9.182%.
Cc1ccc2cc3c(N)c4c(C)ccc(C)c4nc3nc2c1 was tested, and the Inhibition was -22.09%.
For COc1ccccc1C(=O)ON=C(N)Cc1cccc2ccccc12, the Inhibition was -19.53%.
CC(C)CCNCC(O)Cn1c2ccccc2c2ccccc21.Cl (stereo unspecified) was tested, and the Inhibition was 46.75%.
CCOc1cc2c(cc1OCC)C(c1cc(Cl)ccc1O)NCC2 (stereo unspecified) was tested, and the Inhibition was -2.297%.
In the case of COc1ccc(C2C(C(=O)Nc3cccc(OC)c3)c3ccccc3C(=O)N2C2CCCCC2)cc1 (stereo unspecified), the Inhibition is reported as -43.91%.
c1ccc2c(NCCc3c[nH]c4ccccc34)c3ccccc3nc2c1 showed an Inhibition of 19.05%.
Molecule O=C(Nc1ccc(C23CC4CC(CC(c5ccccc5)(C4)C2)C3)cc1)c1cccs1 has an Inhibition of -2.299%.
CCN(CC)CCCNc1ccnc2cc3ccccc3cc12 gave an Inhibition of -47.31%.
CN1C=C(c2ccc3ccccc3n2)C(c2c[nH]c3ccccc23)c2ccccc21 (stereo unspecified) showed an Inhibition of -24.69%.
Molecule CCOC(=O)c1cnc2c(C)cccc2c1Nc1ccc(C(C)=O)cc1 has an Inhibition of -10.99%.
In the case of O=C(Nc1ccc(-c2nc3cc4ccccc4cc3[nH]2)cc1)c1cccc(Br)c1, the Inhibition is reported as -10.01%.
Molecule Cc1ccc(-c2nc3ccccc3o2)cc1NCc1cc(Cc2ccccc2)ccc1O has an Inhibition of 20.55%.
With Cc1ccc(C2CC(C(F)(F)F)n3nc(C(=O)N4CCN(C(c5ccccc5)c5ccccc5)CC4)cc3N2)cc1 (stereo unspecified) the Inhibition was -21.96%.
Cc1ccc2nc(C)cc(Nc3cccc(C(F)(F)F)c3)c2c1.Cl gave an Inhibition of 53.25%.
With COc1cccc(C(=O)NC(c2ccc(C)cc2)c2cc(Cl)c3cccnc3c2O)c1 (stereo unspecified) the Inhibition was 59.18%.
COc1ccc(C(O)(CCC(C)C)C(CN2CCOCC2)c2ccc(Cl)cc2)cc1.Cl (stereo unspecified) gave an Inhibition of -51.44%.
With COc1ccc(-c2cc(=O)oc3c4c(ccc23)OCN(Cc2ccc(F)cc2)C4)cc1 the Inhibition was -0.4054%.
Work on CCOC(=O)C1(Cc2ccccc2)CCN(Cc2cccc(OC)c2O)CC1 yielded an Inhibition of -29.57%.
CCCOCc1cc(CN2CCN(c3cccc(Cl)c3)CC2)c(O)c2ncccc12 showed an Inhibition of 58.2%.
Work on O=C(Cc1ccccc1)NC(c1ccc(Cl)cc1)c1c(O)ccc2ccccc12 (stereo unspecified) yielded an Inhibition of -13.28%.
With CCOc1ccc2c(c1)CN(Cc1ccc(Cl)cc1)CO2 the Inhibition was -64.93%.
In the case of CCCCC(O)(c1ccc(Cl)cc1)C(CN1CCOCC1)c1ccc(Cl)cc1.Cl (stereo unspecified), the Inhibition is reported as 17.88%.
In the case of c1ccc(CNc2nc(Nc3ccccc3)nc3ccccc23)cc1, the Inhibition is reported as 87.13%.
For COc1ccc(C(=O)NC(c2ccccc2Cl)c2cc(Cl)c3cccnc3c2O)cc1 (stereo unspecified), the Inhibition was 32.62%.
For Cc1cccc(N2C(=O)C3C(C2=O)C2(c4ccccc4)C(=O)C3(c3ccccc3)C(c3ccc4c(c3)OCO4)=C2c2ccc3c(c2)OCO3)c1 (stereo unspecified), the Inhibition was 1.02%.
Molecule Cc1cc(=O)oc2c1ccc1oc(C(=O)c3ccccc3)c(C)c12 has an Inhibition of 64.86%.
Work on COc1ccc2c(c1OC)C(=O)N1c3ccccc3N=C(c3ccc(C)cc3)CC21 (stereo unspecified) yielded an Inhibition of -57.7%.
Molecule CCCCCCc1cc(O)c2c3c(c(=O)oc2c1)CCC(C)C3 (stereo unspecified) has an Inhibition of -17.49%.
Molecule CCCc1c(C)nc2ccc(Br)cc2c1O has an Inhibition of -49.14%.
COc1ccc(CCNC(=O)c2cc(S(=O)(=O)N3CC(C)CC(C)C3)ccc2Sc2ccc(F)cc2)cc1OC (stereo unspecified) showed an Inhibition of 16.29%.
Cc1ccc(F)cc1NC(=O)c1cc(Cl)ccc1Nc1ccccc1 was tested, and the Inhibition was -36.44%.
In the case of CCOc1ccc(Nc2c3ccccc3nc3ccccc23)cc1.Cl, the Inhibition is reported as 26.95%.
Molecule CCOc1ccc2nc(C)cc(Nc3ccc(Br)cc3)c2c1 has an Inhibition of -4.208%.
Molecule CC1=C(CC(=O)c2cccc([N+](=O)[O-])c2)C(=O)c2ccccc2C1=O has an Inhibition of -15.31%.
In the case of COc1ccc(C)c2sc(N(Cc3cccnc3)C(=O)c3ccc(C#N)cc3)nc12, the Inhibition is reported as -2.161%.
Molecule COc1cc2c3cc1Oc1c(OC)c(OC)cc4c1C(Cc1ccc(O)c(c1)Oc1ccc(cc1)CC3N(C)CC2)N(C)CC4.Cl (stereo unspecified) has an Inhibition of -14.29%.
Work on CCCCCCc1cc2cc(-c3nc4ccccc4[nH]3)c(=Nc3ccccc3C)oc2cc1O yielded an Inhibition of -3.461%.
CCCCCCC(O)(c1ccc(F)cc1)C(CN1CCOCC1)c1ccccc1.Cl (stereo unspecified) showed an Inhibition of 35.55%.
COc1cc(OC)cc(N2C(=O)N(Cc3ccc(C(C)(C)C)cc3)c3ccccc3S2(=O)=O)c1 gave an Inhibition of -14.44%.
CCOc1c(Br)cc(C2C(C(=O)OC)=CN(C)C=C2C(=O)OC)cc1OC was tested, and the Inhibition was -4.752%.
In the case of COc1ccc2sc(N(Cc3cccnc3)C(=O)c3ccc(C#N)cc3)nc2c1, the Inhibition is reported as 39.49%.
CC1CC2=C(CC1CNCCCN(C)C)C(C)(C)CCC2 (stereo unspecified) was tested, and the Inhibition was 42.26%.
In the case of CN(C)c1ccc(N=Cc2ccc(N3CCOCC3)cc2)cc1, the Inhibition is reported as -8.003%.
Work on COc1ccccc1N1C(=N)SC(=Cc2ccc(OCc3ccccc3F)cc2)C1=O yielded an Inhibition of -8.054%.
CCOC(=O)c1cnc2ccc(OC)cc2c1NCc1ccccc1 gave an Inhibition of 13.76%.
Molecule CCOC(=O)C1=CN(C)C=C(C(=O)OCC)C1c1cc(Br)c(OCC)c(OC)c1 has an Inhibition of -2.299%.
Molecule Cc1ccc(S(=O)(=O)c2c(COC(=O)c3cccc(C)c3)c(-c3ccccc3)nn2C)cc1 has an Inhibition of -24.68%.
With CN1CCN(c2nc(Nc3ccc(O)cc3)nc3ccccc23)CC1.Cl the Inhibition was -22.12%.
Molecule CCOC(=O)c1c[nH]c2c(CC)cccc2c1=O has an Inhibition of 0.8782%.
CCCCc1c(CCC)c(=N)c2ccccc2n1C.I gave an Inhibition of 11.94%.
